Test results taken from patent US6803380B1, “5-aryl-1h-1,2,4-triazole compounds as inhibitors of cyclooxygenase-2 and pharmaceutical compositions containing them” (Laboratoire Theramex, priority 1999, dated 2004).

What was measured:
[1] = target: T1, COX-2 (Ovis aries, UniProt P79208); test: Inhibition of purified COX-2 activity in vitro (PGE2 by enzymo-immunoassay); assay type: biochemical, ewe; conditions: for selective inhibition of COX-2 (in words) / inhibition at 1 µM: concentration 1 μM; for inhibition at 1 µM: read-out: % COX-2 inhibition
T1 construct: purified COX-2 from ewe placenta; purchased Cayman Chemicals; host or cells: ewe placenta (tissue-purified)
T1 sequence (P79208 17-603): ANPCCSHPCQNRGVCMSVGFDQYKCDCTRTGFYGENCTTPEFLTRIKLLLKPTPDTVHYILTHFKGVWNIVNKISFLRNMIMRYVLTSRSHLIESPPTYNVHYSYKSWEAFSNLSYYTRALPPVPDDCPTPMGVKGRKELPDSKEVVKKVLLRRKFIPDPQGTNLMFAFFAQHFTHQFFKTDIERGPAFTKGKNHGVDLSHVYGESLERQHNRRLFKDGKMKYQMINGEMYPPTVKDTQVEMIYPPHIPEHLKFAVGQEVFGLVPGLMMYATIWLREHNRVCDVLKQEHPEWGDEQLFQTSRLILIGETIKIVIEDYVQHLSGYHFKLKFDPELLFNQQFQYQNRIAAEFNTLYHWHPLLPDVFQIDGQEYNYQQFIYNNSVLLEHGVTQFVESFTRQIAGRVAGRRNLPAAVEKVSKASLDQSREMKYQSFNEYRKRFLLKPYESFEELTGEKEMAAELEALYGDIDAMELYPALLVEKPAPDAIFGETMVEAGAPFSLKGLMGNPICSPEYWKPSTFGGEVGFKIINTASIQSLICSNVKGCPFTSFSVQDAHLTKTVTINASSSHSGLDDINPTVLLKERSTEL
Protocol: (§1) Example compounds according to the invention were tested for their ability to inhibit COX-1 and/or COX-2 activities in vitro. Purified COX-1 from ram seminal vesicles and purified COX-2 from ewe placenta (both from Cayman Chemicals) were incubated for 10 minutes at 25° C. in the presence of their substrate, arachidonic acid (5 μM), with or without test compounds or standard inhibitors. Prostaglandin E2, the reaction product, was measured by enzymo-immunoassay (R&D Systems). Each individual value results from duplicate determinations. Final inhibition data are means±standard errors of at least (3) independent experiments performed on as many different days.

[2] = target: T2, COX-1 (Ovis aries, UniProt P05979); test: Inhibition of purified COX-1 activity in vitro (PGE2 by enzymo-immunoassay); assay type: biochemical, ram; conditions: concentration 1 μM; for % COX-1 inhibition: negative sign = inhibition
T2 construct: Purified COX-1 from ram seminal vesicles; purchased Cayman Chemicals; host or cells: ram seminal vesicles (tissue-purified)
T2 sequence (P05979 25-600): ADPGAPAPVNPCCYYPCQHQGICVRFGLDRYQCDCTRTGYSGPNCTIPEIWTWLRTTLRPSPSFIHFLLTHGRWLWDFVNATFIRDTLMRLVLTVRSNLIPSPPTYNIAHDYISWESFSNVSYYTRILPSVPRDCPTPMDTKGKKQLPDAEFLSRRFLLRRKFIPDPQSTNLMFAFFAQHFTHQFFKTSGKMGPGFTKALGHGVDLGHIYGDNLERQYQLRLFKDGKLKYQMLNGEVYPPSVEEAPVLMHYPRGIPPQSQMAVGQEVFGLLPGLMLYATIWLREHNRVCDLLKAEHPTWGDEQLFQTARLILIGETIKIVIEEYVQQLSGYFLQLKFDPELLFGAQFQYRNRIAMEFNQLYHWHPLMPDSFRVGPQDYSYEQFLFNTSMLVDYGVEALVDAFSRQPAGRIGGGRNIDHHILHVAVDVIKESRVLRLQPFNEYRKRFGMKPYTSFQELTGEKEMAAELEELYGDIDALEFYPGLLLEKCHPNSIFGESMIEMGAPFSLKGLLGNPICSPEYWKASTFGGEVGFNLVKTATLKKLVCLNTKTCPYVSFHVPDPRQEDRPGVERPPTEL
Protocol: as §1

[3] = target: T3, Cox-2 (Homo sapiens, UniProt P35354); conditions: literature; cited from earlier work
T3 sequence (P35354 18-604): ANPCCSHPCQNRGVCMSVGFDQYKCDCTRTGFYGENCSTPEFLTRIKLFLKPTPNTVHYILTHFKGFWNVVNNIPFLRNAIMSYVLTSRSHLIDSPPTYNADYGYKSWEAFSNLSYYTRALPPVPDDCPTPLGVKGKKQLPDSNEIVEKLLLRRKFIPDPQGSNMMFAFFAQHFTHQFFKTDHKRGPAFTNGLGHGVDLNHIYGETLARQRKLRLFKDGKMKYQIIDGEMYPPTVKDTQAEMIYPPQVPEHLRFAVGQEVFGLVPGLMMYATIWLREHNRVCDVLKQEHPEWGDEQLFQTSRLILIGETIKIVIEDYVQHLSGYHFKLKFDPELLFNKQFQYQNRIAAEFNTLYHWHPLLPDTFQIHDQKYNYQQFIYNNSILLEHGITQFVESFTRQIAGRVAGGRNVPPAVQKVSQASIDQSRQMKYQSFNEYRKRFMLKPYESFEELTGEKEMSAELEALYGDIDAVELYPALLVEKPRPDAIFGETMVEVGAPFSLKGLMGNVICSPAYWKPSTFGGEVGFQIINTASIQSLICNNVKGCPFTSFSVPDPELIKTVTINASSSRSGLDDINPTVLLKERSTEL

[4] = target: T4, cyclooxygenase-2 (Homo sapiens, UniProt P35354); conditions: literature; cited from earlier work
T4 sequence (P35354 18-604): T3 sequence (P35354 18-604)

[5] = target: cyclooxygenase-1 (Homo sapiens, UniProt P23219); conditions: literature; cited from earlier work
cyclooxygenase-1, sequence (P23219 24-599, species assumed): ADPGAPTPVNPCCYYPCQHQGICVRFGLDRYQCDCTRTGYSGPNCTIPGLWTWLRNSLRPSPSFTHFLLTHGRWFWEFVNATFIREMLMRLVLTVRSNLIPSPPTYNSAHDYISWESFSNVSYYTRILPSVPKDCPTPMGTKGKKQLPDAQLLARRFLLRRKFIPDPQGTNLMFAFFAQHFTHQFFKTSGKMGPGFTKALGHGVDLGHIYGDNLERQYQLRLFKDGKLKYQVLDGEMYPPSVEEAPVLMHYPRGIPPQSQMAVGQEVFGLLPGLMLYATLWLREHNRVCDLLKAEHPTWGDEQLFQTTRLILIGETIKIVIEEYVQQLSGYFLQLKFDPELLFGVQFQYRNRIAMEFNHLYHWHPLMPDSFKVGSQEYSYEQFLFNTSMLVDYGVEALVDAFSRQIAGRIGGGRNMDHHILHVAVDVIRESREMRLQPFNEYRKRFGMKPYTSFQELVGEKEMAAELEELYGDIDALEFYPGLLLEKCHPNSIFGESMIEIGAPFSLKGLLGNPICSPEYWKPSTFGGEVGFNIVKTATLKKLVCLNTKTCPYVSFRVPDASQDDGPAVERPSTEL

| SMILES | melting point [°C] | selective inhibition of COX-2 (in words) [1] | inhibition at 1 µM [1] [%] | COX-2 inhibitory potency compared with nimesulide (in words) ([1]; same concentration, 1 μM) | COX-2 potency relative to nimesulide ([1]; same inhibition at 1 μM vs. 10 μM nimesulide) | inhibition of COX-1 (in words) [2] | % COX-1 inhibition [2] [%] | Cox-2 inhibitory activity (in words) [3] | inhibition of cyclooxygenase-2 (in words) [4] | inhibition of cyclooxygenase-1 (in words) [5] |
| --- | --- | --- | --- | --- | --- | --- | --- | --- | --- | --- |
| CS(=O)(=O)c1ccc(-c2nc(C(F)(F)F)nn2-c2ccc(Br)cc2)cc1 [Example 18, 1-(4-bromo-phenyl)-5-(4-methylsulfonyl-phenyl)-3-trifluoromethyl-1H-1,2,4-triazole] | 198 | able to inhibit COX-2 selectively | 53 | even more potent | about 10 times | did not show any significant inhibition of COX-1 | −5 ± 12 | – | – | – |
| CS(=O)(=O)Nc1ccc(-n2nc(C(F)(F)F)nc2-c2ccc(S(C)(=O)=O)cc2)cc1 [Example 25, 1-(4-methylsulfonylamino-phenyl)-5-(4-methylsulfonyl-phenyl)-3-trifluoromethyl-1H-1,2,4-triazole] | 188 | able to inhibit COX-2 selectively | 31 ± 10 | – | – | did not show any significant inhibition of COX-1 | −5 ± 9 | – | – | – |
| Fc1ccc(-c2nc(C(F)(F)F)nn2-c2ccc(Cl)cc2)cc1 [compound (a)] | – | – | – | – | – | – | – | moderate Cox-2 inhibitory activity | – | – |
| CS(=O)(=O)c1ccc(-c2nc(C#N)nn2-c2ccc(F)cc2)cc1 [compound (b)] | – | – | – | – | – | – | – | – | weak and non selective inhibitors | weak and non selective inhibitors |
